Like-named read-outs stand apart in the source and are kept apart here.
Assays:
[1] = test system: in vitro laid eggs (IVLEs) of adult worm pairs; assay: Vitellocyte and egg volume quantification of in vitro laid eggs (LSCM); format: cell-based, Schistosoma mansoni; details: 0.2 μM, 72 h, n = 10 eggs
From the text: Fluorescent microscopic images (10 eggs per treatment) were captured on a Leica TCS SP8 super resolution laser confocal microscope fitted with a 63 X (water immersion) objective using the Leica Application Suite X. Green (egg autofluorescence) fluorescence was visualised with an argon or diode-pumped, solid state (DPSS) laser at 488 nm. DAPI was visualised using a 405 nm blue diode laser. The number of vitellocytes (DAPI^+ cells) and overall volume (mapped by the green autofluorescence) for individual eggs were calculated using IMARIS 7.3 software (Bitplane).

S. mansoni schistosomula = assay: In vitro schistosomula screening (Roboworm platform), phenotype and motility; format: cell-based, Schistosoma mansoni; details: for SELECTIVITY INDEX Schistosomula Motility: CC50 HepG2 / schistosomula motility EC50; for SELECTIVITY INDEX Schistosomula Phenotype: CC50 HepG2 / schistosomula phenotype EC50; for EC50: Schistosoma mansoni
Description: Briefly, 384-well tissue culture plates (Perkin Elmer, cat 6007460), containing 20 μl of Basch medium, were wet-stamped using a Biomek NX^P liquid handling platform (Beckman Coulter, UK) with negative (0.625% dimethyl sulfoxide, DMSO) and positive controls (AUR and PZQ at 10 μM final concentration in 0.625% DMSO) as well as 37 SGC compounds (at 10 μM final concentration in 0.625% DMSO). […] To each pre-loaded well (single concentration or titration screens), a total of 100–120 mechanically transformed schistosomula (in 60 μl) were deposited via a WellMate (Thermo Scientific, UK). Schistosomula/compound co-cultures (80 μl in total) were then incubated at 37°C for 72 h in a humidified atmosphere containing 5% CO2. At 72 h, tissue culture plates (containing schistosomula/compound co-cultures) were imaged under the same conditions (37°C in a humidified atmosphere containing 5% CO2) using an ImageXpressXL high content imager (Molecular Devices, UK) with subsequent images processed for phenotype and motility as previously reported and successfully implemented by us at Aberystwyth University. Single point schistosomula screens (10 μM) were repeated two or three times whereas dose response titrations were performed once. Zˊ values obtained from all schistosomula screens ranged from 0.27–0.48 (mean = 0.40) for phenotype and 0.41–0.56 (mean = 0.48) for motility.

[2] = cited from earlier work
[3] = HepG2 cell cytotoxicity, MTT assay; format: cell-based, Human; details: human, HepG2 cells, read-out: CC50 (HepG2) (95% Confidence Intervals)
Description: (§1) Human Hepatocyte Carcinoma (HepG2) cells (Sigma Aldrich, UK) were utilized to assess SGC epigenetic probe cell cytotoxicity in the application of the MTT (3-(4,5-dimethylthiazol-2-yl)-2,5-diphenyltetrazolium bromide) assay. Briefly, cells were passaged at 70–80% confluence and seeded (20,000 cells/ 50 μL per well) in a 96-well, black-sided, clear-bottomed falcon plate (Fisher Scientific, UK) with the final plate column (8 wells) being treated as a blank (media only). Following a 24 h incubation (5% CO2, 37°C, humidified), HepG2 cells were then treated with 50 μL of pre-warmed media (37°C) containing SGC EPs/EIs at 200 μM to 0.02 μM (final concentration 100 μM, 10 μM, 1 μM, 0.1 μM and 0.01 μM). Three positive (1% Triton X-100) and negative (1% DMSO) control wells per plate were additionally included.
(§2) After addition of compounds, each plate was then incubated for a further 20 h before application of MTT for assessment of overt compound cytotoxicity using the MTT assay. The MTT assay was read using the POLARstar Omega (BMG LabTech, UK) plate reader at an absorbance of 570 nm. CC50s were calculated in GraphPad Prism.

HepG2 cells = assay: HepG2 cell cytotoxicity, MTT assay; format: cell-based, Human; details: 20 h, read-out: CC50 (HepG2) (95% Confidence Intervals)
Description: as §1, §2

[4] = test system: adult male and female schistosome pairs; assay: In vitro adult schistosome screening (WHO/TDR motility, egg counts); format: cell-based, Schistosoma mansoni; details: for SELECTIVITY INDEX Adult Females: CC50 HepG2 / adult female EC50; for SELECTIVITY INDEX Adult Males: CC50 HepG2 / adult male EC50; for EC50: Schistosoma mansoni
Description: In vitro screening was replicated three times on different dates to account for any biological variation. Briefly three adult worm pairs/well (48-well tissue culture plate format) were placed into DMEM (Gibco, Paisley, UK) supplemented with 10% (v/v) FCS (Gibco, Paisley, UK), 1% (v/v) L-glutamine (Gibco, Paisley, UK) and an antibiotic mixture (150 Units/ml penicillin and 150 μg/ml streptomycin; Gibco, UK). DMSO (0.5% negative control), AUR (10 μM concentration in 0.5% DMSO; positive control) and two-fold titrations of SGC compounds (50 μM– 6.25 μM or 50 μM– 0.05 μM; in 0.5% DMSO max) were added, and together, these adult worm/compound co-cultures were incubated at 37°C for 72 h in a humidified atmosphere containing 5% CO2. Following compound incubation, WHO/TDR readouts of adult worm motility, abundance of H3K36me2 (LLY-507 and BAY-598 treated worms only) in histone extracts and egg counts/well were recorded at 72 h.

H3K36me2 = H3K36me2 detection in adult worm histone extracts; format: cell-based, Schistosoma mansoni; details: siRNA 50 ng/μl, adult worms, vs siLuc
Description: LLY-507 (6.25 μM), BAY-598 (25 μM) or siSmp_000700 treated male and female worms (alongside DMSO or siLuc controls; 21 individuals per condition) were homogenized with a TissueLyser (Qiagen) and total histones extracted using the EpiQuik^TM Total Histone Extraction Kit (Epigentek). Levels of H3K36me2 in adult histone extracts were measured using the EpiQuik^TM Global Di-Methyl Histone H3-K36 Quantification Kit (Fluorimetric, Epigentek). Technical duplicates of three biological replicates of each treatment were analysed according to the manufacturer’s instructions. Fluorescent readings (530EX/590EM nm) were obtained using a POLARstar Omega (BMG Labtech, UK) microtiter plate reader. Fluorescent values of the samples were corrected by subtracting the fluorescent readings of the blank (buffer only, provided in the kit). The mean of the adjusted control values (DMSO for LLY-507/BAY-598 treated worms and siLuc for siSmp_000700 treated worms) was set at 100% H3K36me2 and the standard deviation (SD) was calculated from the normalised values.

adult schistosome pairs = assay: RNAi of adult schistosome pairs: motility and egg counts; format: cell-based, Schistosoma mansoni; details: 168 h (7 days post-treatment), vs siLuc
Description: (§3) Following the perfusion of 7 wks infected mice, adult worms were recovered and RNAi performed as previously described. Briefly, smp_000700 and non-specific luciferase siRNA duplexes were purchased from Sigma (siSmp_000700 = sense: GGUAAUCGGUCAUGUGUAU[dT][dT] and anti-sense: AUACACAUGACCGAUUACC[dT][dT]; siLuc = sense CUUACGCUGAGUACUUCGA[dT][dT] and anti-sense UCGAAGUACUCAGCGUAAG[dT][dT]) and used at a final concentration of 50 ng/μl. Mixed sex adult worm pairs (for knockdown assessment by quantitative reverse transcription PCR, qRT-PCR) were cultured at 37°C in DMEM supplemented with 10% FCS, 2 mM L-glutamine, […] HEPES (Sigma-Aldrich, UK), 100 Units/ml penicillin and 100 μg/ml streptomycin in an atmosphere of 5% CO2 with a 70% media exchange performed every 48 h. The experiment was replicated three times (21 worm pairs/replicate). Quantitative reverse transcription PCR (qRT-PCR) of smp_000700 abundance was performed at 48 h and adult worm motility as well as egg counts were quantified at 168 h. Levels of H3K36me2 detected in schistosome histone extracts were assessed at 72 h.

smp_000700 = assay: RNAi knockdown assessment by qRT-PCR; format: cell-based, Schistosoma mansoni; details: 48 h, vs siLuc
Description: as §3
Following RNAi with siSmp_000700 and siLuc, mixed-sex adult worms were incubated for a total of 48 h before processing them for RNA isolation. […]

For `CCOC(=O)CCNc1cc(N2CCc3ccccc3CC2)nc(-c2ccccn2)n1` [GSK-J4, ethyl 3-[[2-pyridin-2-yl-6-(1,2,4,5-tetrahydro-3-benzazepin-3-yl)pyrimidin-4-yl]amino]propanoate], the “number of vitellocytes per egg (packaging into IVLEs)” value [1] was “significantly inhibited the packaging”, the overall egg volume [1] was “no difference” and the “schistosomula phenotype by microscopic assessment” value (S. mansoni schistosomula; 10 μM, 72 h) was “phenotypes comparable to auranofin”. The “SELECTIVITY INDEX Schistosomula Motility” value (S. mansoni schistosomula) was 16.55, the “SELECTIVITY INDEX Schistosomula Phenotype” value (S. mansoni schistosomula) was 18.62 and the EC50 (S. mansoni schistosomula; 72 h, two-fold titration 10 μM–0.625 μM, single replicate, approximate, read-out: SCHISTOSOMULA EC50 Motility) was 6.04 µM. The EC50 (S. mansoni schistosomula; 72 h, two-fold titration 10 μM–0.625 μM, single replicate, approximate, read-out: SCHISTOSOMULA EC50 Phenotype) was 5.37 µM, the cell permeability [2] was “cell-permeable” and the CC50 at 20 h [3] was over 50 µM. For the same compound, the CC50 (HepG2 cells) was over 100 µM, the “adult worm motility and IVLE production” value ([4]; 3.13 μM and 6.25 μM, 72 h, vs DMSO) was “led to adult worm motility and IVLE deficiencies” and the “SELECTIVITY INDEX Adult Females” value [4] was 8.78. The “SELECTIVITY INDEX Adult Males” value [4] was 25.49, the EC50 ([4]; 72 h, motility, adult females, read-out: ADULT EC50 (95% Confidence Intervals) Females) was 11.4 µM and the EC50 ([4]; 72 h, motility, adult males, read-out: ADULT EC50 (95% Confidence Intervals) Males) was 3.92 µM.
With `COc1ccccc1C(=O)Nc1cc2c(cc1N1CCCC1)n(C)c(=O)n2C` [PFI-4, N-(1,3-dimethyl-2-oxo-6-(pyrrolidin-1-yl)-2,3-dihydro-1H-benzo[d]imidazol-5-yl)-2-methoxybenzamide] the “SELECTIVITY INDEX Schistosomula Motility” value (S. mansoni schistosomula) was 19.52, the “SELECTIVITY INDEX Schistosomula Phenotype” value (S. mansoni schistosomula) was 19.18 and the EC50 (S. mansoni schistosomula; 72 h, read-out: SCHISTOSOMULA EC50 Motility) was 5.12 µM. For the same compound, the EC50 (S. mansoni schistosomula; 72 h, read-out: SCHISTOSOMULA EC50 Phenotype) was 5.22 µM, the CC50 at 20 h [3] was over 50 µM and the CC50 (HepG2 cells) was over 100 µM. For the same compound, the “SELECTIVITY INDEX Adult Females” value [4] was 3.20, the “SELECTIVITY INDEX Adult Males” value [4] was 3.33 and the EC50 ([4]; 72 h, read-out: ADULT EC50 (95% Confidence Intervals) Females) was 31.2 µM. It also gave an EC50 ([4]; 72 h, read-out: ADULT EC50 (95% Confidence Intervals) Males) of 30.1 µM.
For “siSmp_000700: siRNA duplex directed against smp_000700; sense GGUAAUCGGUCAUGUGUAU[dT][dT] (antisense AUACACAUGACCGAUUACC; 3' dTdT overhangs, further chemistry not given here)”, the “reduction in H3K36me2” value (H3K36me2) was 15%, the “adult worm motility after RNAi” value (adult schistosome pairs) was “significant reduction in adult worm motility” and the “egg production after RNAi” value (adult schistosome pairs) was “egg production defects”. The “reduction of smp_000700 mRNA abundance (KD)” value (smp_000700) was 66%.

— PMC6881072, “The repositioning of epigenetic probes/inhibitors identifies new anti-schistosomal lead compounds and chemotherapeutic targets” (PLoS Neglected Tropical Diseases, 2019)
